Seven molecules from ChEMBL document CHEMBL6120978, “Anticancer activity of salinomycin quaternary phosphonium salts” (Eur J Med Chem, 2025) can be followed below.

In brackets after ≈: the same amount, converted by molar mass. Where only a bound is given, the exact number is not on record here.

For data set [1], the system named is A549. Put plainly: Cytotoxicity against human A549 cells incubated for 72 hrs by MTT assay. The format is functional, cell-based. Particulars: A549, 72 h. (In general: Tetrazolium dyes change colour on reduction, which living cells bring about.)
Data set [2] concerns MDA-MB-231. Put plainly: Cytotoxicity against human MDA-MB-231 cells incubated for 72 hrs by MTT assay. The format is functional, cell-based. Particulars: MDA-MB-231, 72 h.
Data set [3] can be described thus: Cytotoxicity against chinese hamster V79 cells incubated for 72 hrs by MTT assay. Format: toxicity, cell-based, Cricetulus griseus.
Data set [4] can be described thus: Selectivity index, ratio of IC50 for cytotoxicity against human HaCaT cells to IC50 for cytotoxicity against human SW620 cells. Format: toxicity, cell-based. Particulars: HaCaT cells versus SW620 cells, read-out: Ratio IC50.
A short description of data set [5]: Selectivity index, ratio of IC50 for cytotoxicity against human HaCaT cells to IC50 for cytotoxicity against human A549 cells. The format is toxicity, cell-based. Particulars: HaCaT cells versus A549 cells, read-out: Ratio IC50.
Data set [6] can be described thus: Selectivity index, ratio of IC50 for cytotoxicity against chinese hamster V79 cells to IC50 for cytotoxicity against human SW620 cells. The format is toxicity, cell-based. Particulars: V79 cells versus SW620 cells, read-out: Ratio IC50.
Data set [7] deals with Staphylococcus aureus. Nature of the data set: Antimicrobial activity against Staphylococcus aureus NCTC 4163 incubated for 18 hrs by twofold microdilution method. The format is functional.
In data set [8] the test system is Pseudomonas aeruginosa. Nature of the data set: Antimicrobial activity against Pseudomonas aeruginosa ATCC 15442 incubated for 18 hrs by twofold microdilution method. The format is functional. Background: In broth dilution the organism is exposed to a series of concentrations in liquid medium.
Data set [9] relates to Staphylococcus epidermidis. Put plainly: Antimicrobial activity against Staphylococcus epidermidis ATCC 35984 incubated for 18 hrs by twofold microdilution method. Format: functional.
Data set [10] in a line: Selectivity index, ratio of IC50 for cytotoxicity against chinese hamster V79 cells to IC50 for cytotoxicity against human PC-3 cells. Format: toxicity, cell-based. Particulars: V79 cells versus PC-3 cells, read-out: Ratio IC50.
Data set [11] deals with Staphylococcus aureus. Nature of the data set: Antimicrobial activity against Staphylococcus aureus ATCC 6538 incubated for 18 hrs by twofold microdilution method. The format is functional.
Data set [12] deals with Staphylococcus aureus. Nature of the data set: Antimicrobial activity against Staphylococcus aureus ATCC 29213 incubated for 18 hrs by twofold microdilution method. Format: functional.
Data set [13] is described as follows: Cytotoxicity against human HaCaT cells incubated for 72 hrs by MTT assay. The format is toxicity, cell-based.
The test system of data set [14] is Staphylococcus aureus. Nature of the data set: Antimicrobial activity against Staphylococcus aureus ATCC 25923 incubated for 18 hrs by twofold microdilution method. The format is functional.
Data set [15] concerns SW-620. Nature of the data set: Cytotoxicity against human SW620 cells incubated for 72 hrs by MTT assay. Format: functional, cell-based. Particulars: SW-620, 72 h.
Data set [16] can be described thus: Selectivity index, ratio of IC50 for cytotoxicity against human HaCaT cells to IC50 for cytotoxicity against human PC-3 cells. Particulars: HaCaT cells versus PC-3 cells, read-out: Ratio IC50. Format: toxicity, cell-based.
The subject of data set [17] is Escherichia coli. Put plainly: Antimicrobial activity against Escherichia coli ATCC 25922 incubated for 18 hrs by twofold microdilution method. The format is functional.
Data set [18] is described as follows: Selectivity index, ratio of IC50 for cytotoxicity against human HaCaT cells to IC50 for cytotoxicity against human SW480 cells. Format: toxicity, cell-based. Particulars: HaCaT cells versus SW480 cells, read-out: Ratio IC50.
Data set [19] has as its system Staphylococcus epidermidis. Put plainly: Antimicrobial activity against Staphylococcus epidermidis ATCC 12228 incubated for 18 hrs by twofold microdilution method. Format: functional.
A short description of data set [20]: Selectivity index, ratio of IC50 for cytotoxicity against human HaCaT cells to IC50 for cytotoxicity against human MDA-MB-231 cells. Format: toxicity, cell-based. Particulars: HaCaT cells versus MDA-MB-231 cells, read-out: Ratio IC50.
In data set [21] the test system is PC-3. Nature of the data set: Cytotoxicity against human PC-3 cells incubated for 72 hrs by MTT assay. The format is functional, cell-based. Particulars: PC-3, 72 h.
Data set [22] in a line: Selectivity index, ratio of IC50 for cytotoxicity against chinese hamster V79 cells to IC50 for cytotoxicity against human A549 cells. Format: toxicity, cell-based. Particulars: V79 cells versus A549 cells, read-out: Ratio IC50.
The nature of data set [23]: Selectivity index, ratio of IC50 for cytotoxicity against chinese hamster V79 cells to IC50 for cytotoxicity against human MDA-MB-231 cells. The format is toxicity, cell-based. Particulars: V79 cells versus MDA-MB-231 cells, read-out: Ratio IC50.
Data set [24] relates to SW480. Nature of the data set: Cytotoxicity against human SW480 cells incubated for 72 hrs by MTT assay. Format: functional, cell-based. Particulars: SW480, 72 h.
The nature of data set [25]: Selectivity index, ratio of IC50 for cytotoxicity against chinese hamster V79 cells to IC50 for cytotoxicity against human SW480 cells. The format is toxicity, cell-based. Particulars: V79 cells versus SW480 cells, read-out: Ratio IC50.

For the molecule `COc1cccc2c1C(=O)c1c(O)c3c(c(O)c1C2=O)C[C@@](O)(C(=O)CO)C[C@@H]3O[C@H]1C[C@H](N)[C@H](O)[C@H](C)O1` [DOXORUBICIN], the 50% inhibitory concentration (IC50) – broadly, the point on the concentration scale where inhibition reaches its midpoint – in data set [1] turned out to be 630 nM; in [2] it was 830 nM. Besides, the midpoint of inhibition in data set [3], the IC50 at 72 h, lay at 2010 nM.

Regarding `CC[C@@H](C(=O)[C@@H](C)[C@@H](O)[C@H](C)[C@@H]1O[C@@H]([C@@H](CC)C(=O)OCCCCCC[P+](c2ccccc2)(c2ccccc2)c2ccc(N(C)C)cc2)CC[C@@H]1C)[C@H]1O[C@]2(C=C[C@@H](O)[C@]3(CC[C@@](C)([C@H]4CC[C@](O)(CC)[C@H](C)O4)O3)O2)[C@H](C)C[C@@H]1C.[Br-]`, the selectivity ratio in data set [4] was determined as 1; in [5], 0.8; in [6], 0.8; in [10], 0.4; in data set [16], 0.5; in [18], 1.2. In addition, the selectivity ratio in [20] worked out at 0.8; in data set [22], 0.7; in data set [23], 0.7; in data set [25] it was 1. In addition, the IC50 in data set [1] turned out to be 850 nM; in data set [2] it was 880 nM; in data set [15] it was 710 nM; in [21] it was 1470 nM; in data set [24] it was 580 nM. Further, the minimal inhibitory concentration (MIC) (commonly the least concentration at which growth counts as inhibited) in [7] is 8 µg/mL; in data set [8], more than 256 µg/mL; in [9], 8 µg/mL; in data set [11], 8 µg/mL; in data set [12], 8 µg/mL; in data set [14], 8 µg/mL. Besides, the minimal inhibitory concentration (MIC) was more than 256 µg/mL in data set [17] and 8 µg/mL in [19]. For the same molecule, the half-inhibitory concentration (IC50) at 72 h was found to be 710 nM in data set [13] and 600 nM in [3].

As for `O=C(O)c1cn(C2CC2)c2cc(N3CCNCC3)c(F)cc2c1=O` [CIPROFLOXACIN], the MIC in data set [9] was determined as 0.125 µg/mL (≈ 0.377 µM); in [12], 0.25 µg/mL (≈ 0.754 µM); in data set [14], 0.25 µg/mL (≈ 0.754 µM); in data set [17], 0.007 µg/mL (≈ 0.0211 µM); in [19], 0.125 µg/mL (≈ 0.377 µM).

As for `CC[C@@H](C(=O)[C@@H](C)[C@@H](O)[C@H](C)[C@@H]1O[C@@H]([C@@H](CC)C(=O)OCCCC[P+](c2ccc(OC)cc2)(c2ccc(OC)cc2)c2ccc(OC)cc2)CC[C@@H]1C)[C@H]1O[C@]2(C=C[C@@H](O)[C@]3(CC[C@@](C)([C@H]4CC[C@](O)(CC)[C@H](C)O4)O3)O2)[C@H](C)C[C@@H]1C.[Br-]`, the selectivity ratio is 0.9 in data set [4]; 1.7 in data set [5]; 0.5 in [6]; 0.3 in data set [10]; 0.5 in data set [16]; 1.5 in data set [18]. Also, the selectivity ratio in data set [20] came to 0.8; in [22] it was 1; in [23] it was 0.5; in [25], 0.9. Besides, the IC50 in [1] amounted to 660 nM; in data set [2], 1420 nM; in [15] it was 1280 nM; in [21], 2240 nM; in [24], 730 nM. The minimal inhibitory concentration (MIC) in [7] is 4 µg/mL; in [8] it was more than 256 µg/mL; in data set [9], 8 µg/mL; in [11] it was 4 µg/mL; in data set [12] it was 64 µg/mL; in data set [14], 4 µg/mL. Further, the MIC in [17] is more than 256 µg/mL; in data set [19] it was 16 µg/mL. Also, the IC50 at 72 h was found to be 1120 nM in data set [13] and 670 nM in data set [3].

Regarding `CC[C@@H](C(=O)[C@@H](C)[C@@H](O)[C@H](C)[C@@H]1O[C@@H]([C@@H](CC)C(=O)OCCCC[P+](c2ccccc2OC)(c2ccccc2OC)c2ccccc2OC)CC[C@@H]1C)[C@H]1O[C@]2(C=C[C@@H](O)[C@]3(CC[C@@](C)([C@H]4CC[C@](O)(CC)[C@H](C)O4)O3)O2)[C@H](C)C[C@@H]1C.[Br-]`, the selectivity ratio in [4] was found to be 0.8; in [5], 1.3; in [6], 0.5; in data set [10], 0.7; in data set [16], 1.1; in [18], 1.7. In addition, the selectivity ratio in data set [20] worked out at 1.3; in [22], 0.9; in data set [23], 0.9; in [25] it was 1.1. The 50% inhibitory concentration (IC50) in data set [1] amounted to 700 nM; in data set [2], 740 nM; in data set [15], 1250 nM; in data set [21], 880 nM; in data set [24], 560 nM. Besides, the minimum inhibitory concentration (MIC) in data set [7] amounted to 2 µg/mL; in data set [8], 256 µg/mL; in data set [9], 2 µg/mL; in data set [11], 2 µg/mL; in data set [12], 2 µg/mL; in data set [14] it was 2 µg/mL. In addition, the minimal inhibitory concentration (MIC) in [17] was determined as 256 µg/mL; in [19] it was 2 µg/mL. Besides, the IC50 at 72 h in [13] is 940 nM; in data set [3], 640 nM.

Regarding `CC[C@@H](C(=O)[C@@H](C)[C@@H](O)[C@H](C)[C@@H]1O[C@@H]([C@@H](CC)C(=O)OCCCCCC[P+](c2ccc(C)cc2)(c2ccc(C)cc2)c2ccc(C)cc2)CC[C@@H]1C)[C@H]1O[C@]2(C=C[C@@H](O)[C@]3(CC[C@@](C)([C@H]4CC[C@](O)(CC)[C@H](C)O4)O3)O2)[C@H](C)C[C@@H]1C.[Br-]`, the selectivity ratio in data set [4] is 1.5; in data set [5], 1.1; in [6] it was 0.9; in [10], 0.4; in [16] it was 0.7; in data set [18], 1.7. Further, the selectivity ratio in [20] was 1.3; in [22], 0.7; in [23] it was 0.8; in data set [25], 1.1. Moreover, the half-maximal inhibitory concentration (IC50) turned out to be 980 nM in data set [1]; 830 nM in data set [2]; 720 nM in data set [15]; 1580 nM in data set [21]; 610 nM in data set [24]. Also, the minimum inhibitory concentration (MIC) is 8 µg/mL in data set [7]; more than 256 µg/mL in data set [8]; 16 µg/mL in data set [9]; 8 µg/mL in data set [11]; 8 µg/mL in data set [12]; 16 µg/mL in [14]. Moreover, the MIC in [17] was more than 256 µg/mL; in [19] it was 16 µg/mL. For the same molecule, the IC50 at 72 h in data set [13] was 1050 nM; in data set [3], 670 nM.

As to `CC[C@@H](C(=O)[C@@H](C)[C@@H](O)[C@H](C)[C@@H]1O[C@@H]([C@@H](CC)C(=O)OCCCCCC[P+](c2ccc(OC)cc2)(c2ccc(OC)cc2)c2ccc(OC)cc2)CC[C@@H]1C)[C@H]1O[C@]2(C=C[C@@H](O)[C@]3(CC[C@@](C)([C@H]4CC[C@](O)(CC)[C@H](C)O4)O3)O2)[C@H](C)C[C@@H]1C.[Br-]`, the selectivity ratio in data set [4] worked out at 0.8; in data set [5], 0.7; in data set [6], 0.7; in data set [10], 0.4; in data set [16], 0.5; in data set [18] it was 1.2. The selectivity ratio in data set [20] was determined as 1.1; in data set [22] it was 0.7; in data set [23], 1; in [25] it was 1.1. The 50% inhibitory concentration (IC50) amounted to 920 nM in [1]; 600 nM in data set [2]; 810 nM in [15]; 1400 nM in [21]; 530 nM in data set [24]. For the same molecule, the MIC in [7] is 4 µg/mL; in data set [8] it was more than 256 µg/mL; in data set [9], 8 µg/mL; in [11], 4 µg/mL; in data set [12] it was 8 µg/mL; in [14] it was 8 µg/mL. Also, the MIC was more than 256 µg/mL in data set [17] and 8 µg/mL in [19]. Besides, the results for the concentration for half-maximal inhibition (IC50) at 72 h in data set [13] and in data set [3] were 630 nM and 600 nM, respectively.
